Experimental findings from US5948791A, “Quinoline derivatives for treating malaria” (Hoffmann-La Roche Inc., priority 1995, dated 1999) are described below.

Values after ≈ are worked out from the molar mass of the structure shown. Where a name gives a salt, the structure may show the parent alone. Read-outs that look alike come from different tables or passages of the source.

One assay concerns Plasmodium falciparum K1. As to the kind of experiment: Growth inhibition of Plasmodium falciparum K1 (chloroquine-resistant) in vitro, [G-3H]-hypoxanthin incorporation. The class given is cell-based, Plasmodium falciparum (strain K1). As to conditions: for IC50: Plasmodium falciparum, K1, 72 h, read-out: IC50 for P. falciparum K1; for Resistance index: ratio of the IC50 for K1 and the IC50 for NF54. From the text:
(§1) The ratio of the growth inhibition of a strain which is especially resistant to chloroquine and of a strain which is sensitive to chloroquine gives as the "resistance index" a measurement for the absence of a cross-resistance with chloroquine. Since, for all novel compounds the resistance index lies between 0.7 and 2.5, they inhibit the growth of sensitive as well as resistant strains of the malaria pathogen equally effectively. They are accordingly also suitable for the prophylaxis of a malaria disease and also for the treatment of a malaria disease even when chloroquine is ineffective. The good activity against malaria pathogens is also shown in animal experiments. The effective doses measured after oral and subcutaneous administration to mice infected with malaria pathogens are shown in Table 2 hereinafter.
(§2) Test method for the determination of the activity against Plasmodium falciparum in vitro
(§3) The preparations are tested on intraerythrocytary stages of Plasmodium falciparum from asynchronous cultures according to the method of Desjardin et al. (Desjardins, R. E. et al: Quantitative assessment of antimalarial activity in vitro by a semiautomated microdilution technique. Antimicrob. Agents Chemother. 16, 710-718, (1979)).
(§4) The culture medium consists of RPMI 1640 with the addition of 25 mM HEPES, 25 mM NaHCO3, 100 μg/ml neomycin and […] (A^+). Human-A^+ erythrocytes are used as the Plasmodium falciparum host cells. The parasites are maintained at 37° C. in an atmosphere of 3% O2, 4% CO2, 93% N2 and 95% relative humidity.
(§5) In order to determine the activity, the preparations are dissolved in DMSO, pre-diluted in the culture medium to a suitable starting concentration and subsequently titrated-out on to microtitre plates in the 2nd stage over 6-7 steps. After the addition of the parasite culture (0.7% parasitemia in 2.5% erythrocyte suspension) the test plates are incubated under the conditions given above for 72 h. The parasite growth in the different preparation concentrations is determined using [G-^3 H]-hypoxanthin incorporation compared to untreated control cultures on the same test plates. The 50% growth inhibition (IC50) is calculated according to logit regression analysis from the resulting dosage-activity curve.
(§6) The preparations are tested on at least one chloroquine-resistant and one chloroquine-sensitive Plasmodium falciparum strain. Additional sensitive and resistant strains are included for further characterization.

The test system of assay [1] is Plasmodium falciparum strain NF54. As to the kind of experiment: Growth inhibition of Plasmodium falciparum NF54 (chloroquine-sensitive) in vitro, [G-3H]-hypoxanthin incorporation. The conditions noted are these: chloroquine-sensitive strain NF54, 72 h, read-out: IC50 for P. falciparum NF54. The class given is cell-based.
Description: as §1, §2, §3, §4, §5, §6

The next assay relates to Plasmodium berghei. In words: animal or person. The class given is in vivo, Plasmodium berghei (strain ANKA) in mice. The conditions noted are these: Plasmodium berghei, mice, blood smears 48 h after treatment. How it is done:
Test method for the determination of the activity against Plasmodium berghei in vivo
The preparations are tested on mice infected with malaria pathogens (Plasmodium berghei). Male albino mice (IBM:MORO(SPF), FUELLINSDORF) weighing about 25 g are used as the test animals. They are kept in climatized rooms at 21-22° C. in groups of 5 animals per cage. They receive ad libitum a diet feed with a low PABA content (NAFAG FUTTER " No. 9009 PAB-45, PABA content 45 mg/kg) and drinking water. On the first day of the test (D0) the test animals are infected with Plasmodium berghei (strain ANKA). For this there is used heparinized blood of a donor mouse with about 30% parasitemia, which is diluted with physiological saline such that it contains 10^8 parasitized erythrocytes per ml. 0.2 ml of this suspension is injected intravenously (i.v.) into the mice to be treated and into the control mice.
The substances to be tested are dissolved or suspended in distilled water or in a mixture of 7% Tween 80, 3% alcohol (96%) and water. Usually, 0.25 ml of this solution or suspension is administered once subcutaneously and perorally to groups of 5 test animals. Treatment is effected 24 hours after the infection. 10 control animals are treated in the same manner with solvent or suspension medium per test.
All substances are tested in a first test in a single dosage of 10 mg/kg. Only those substances which in this test (10 mg/kg) have shown a parasitaemia reduction of 90% are used for the titration. Suitable dilutions of the test substance can be used to obtain an accurate titration of the activity.
48 hours after the treatment (D+3) blood smears are prepared from all animals using blood from tail veins and are stained with giemsa. […] The difference in the average values of the infection rates of control group (100%) and treated groups is calculated and expressed as a percentage reduction (GI%). The ED50 or ED90 is determined mathematically by means of the JMP programme (nonlinear fit). The ED50 (ED90) in mg/kg is that dose which after single administration reduces the average erythrocyte infection rate by 50% (90%) in comparison to the control group.

Regarding `CCN(CC)Cc1cc(Nc2ccnc3cc(Cl)ccc23)ccc1O` [Amodiaquine, reference compound], the half-inhibitory concentration (IC50) in the assay with Plasmodium falciparum K1 was determined as 0.0035 µg/mL (≈ 9.84 nM); in assay [1], 0.0025 µg/mL (≈ 7.03 nM).
As for `C[C@H](CNc1ccnc2cc(Cl)ccc12)NCc1ccc(N(C)C)cc1.Cl.Cl.Cl` [Example 1, (2R)-N1-(7-Chloro-quinolin-4-yl)-N2-(4-dimethylamino-benzyl)-propane-1,2-diamine trihydrochloride], in the assay with Plasmodium falciparum K1, the IC50 worked out at 0.0175 µg/mL and the Resistance index was found to be 1.4. Also, in assay [1], the half-maximal inhibitory concentration (IC50) was determined as 0.0126 µg/mL.
For the molecule `C[C@@H](CNCc1ccc(N(C)C)cc1)Nc1ccnc2cc(Cl)ccc12.Cl.Cl.Cl` [Example 2, (2S)-N2-(7-Chloro-quinolin-4-yl)-N1-(4-dimethylamino-benzyl)-propane-1,2-diamine trihydrochloride], in the assay on Plasmodium falciparum K1, the IC50 worked out at 0.0148 µg/mL and the Resistance index is 2.1. Besides, in assay [1], the IC50 is 0.0071 µg/mL.
As to `CC(C)(CNc1ccnc2cc(Cl)ccc12)NCc1cccc(Cl)c1Cl.Cl.Cl` [Example 26, N1-(7-Chloro-quinolin-4-yl)-N2-(2,3-dichloro-benzyl)-2-methyl-propane-1,2-diamine dihydrochloride], the IC50 came out at 0.0373 µg/mL in the assay on Plasmodium falciparum K1 and 0.0263 µg/mL in assay [1]. Also, in the assay on Plasmodium falciparum K1, the Resistance index is recorded as 1.4.
`CC(C)(CNc1ccnc2cc(Cl)ccc12)NCc1cccc(O)c1.Cl.Cl` [Example 32, N1-(7-Chloro-quinolin-4-yl)-N2-(3-hydroxy-benzyl)-2-methyl-propane-1,2-diamine dihydrochloride]: in the assay with Plasmodium falciparum K1, the half-inhibitory concentration (IC50) is 0.0147 µg/mL and the Resistance index is 1.9. Moreover, the IC50 in assay [1] was 0.0076 µg/mL.
Taken in the same sequence, the figures for `COc1ccccc1CNC(C)(C)CNc1ccnc2cc(Cl)ccc12.Cl.Cl` [Example 34, N1-(7-Chloro-quinolin-4-yl)-N2-(2-methoxy-benzyl)-2-methyl-propane-1,2-diamine dihydrochloride] were 0.015 µg/mL, 2.1 and 0.0072 µg/mL.
Taken in the same sequence, the figures for `COc1ccc(CNC(C)(C)CNc2ccnc3cc(Cl)ccc23)cc1.Cl.Cl` [Example 35, N1-(7-Chloro-quinolin-4-yl)-N2-(4-methoxy-benzyl)-2-methyl-propane-1,2-diamine dihydrochloride] were 0.0133 µg/mL, 2.1 and 0.0064 µg/mL.
As for `COc1cccc(CNC(C)(C)CNc2ccnc3cc(Cl)ccc23)c1OC.Cl.Cl` [Example 36, N1-(7-Chloro-quinolin-4-yl)-N2-(2,3-dimethoxy-benzyl)-2-methyl-propane-1,2-diamine dihydrochloride], the results for the IC50 (in the assay on Plasmodium falciparum K1; in assay [1]) were 0.0207 µg/mL and 0.0162 µg/mL, respectively. In addition, the Resistance index in the assay on Plasmodium falciparum K1 was found to be 1.3.
Taken in the same sequence, the figures for `COc1ccc(CNC(C)(C)CNc2ccnc3cc(Cl)ccc23)c(OC)c1.Cl.Cl` [Example 37, N1-(7-Chloro-quinolin-4-yl)-N2-(2,4-dimethoxy-benzyl)-2-methyl-propane-1,2-diamine dihydrochloride] were 0.011 µg/mL, 0.011 µg/mL and 1.0.
On to `COc1ccc(OC)c(CNC(C)(C)CNc2ccnc3cc(Cl)ccc23)c1.Cl.Cl` [Example 38, N1-(7-Chloro-quinolin-4-yl)-N2-(2,5-dimethoxy-benzyl)-2-methyl-propane-1,2-diamine dihydrochloride], for which, in the assay with Plasmodium falciparum K1, the IC50 is 0.0151 µg/mL and the Resistance index was found to be 1.5. Further, in assay [1], the IC50 was determined as 0.0101 µg/mL.
Turning to `COc1ccc(CNC(C)(C)CNc2ccnc3cc(Cl)ccc23)cc1OC.Cl.Cl` [Example 39, N1-(7-Chloro-quinolin-4-yl)-N2-(3,4-dimethoxy-benzyl)-2-methyl-propane-1,2-diamine dihydrochloride], in the assay on Plasmodium falciparum K1, the IC50 worked out at 0.0103 µg/mL and the Resistance index is given as 1.3. The IC50 in assay [1] is 0.0078 µg/mL.
Regarding `COc1cc(CNC(C)(C)CNc2ccnc3cc(Cl)ccc23)cc(OC)c1OC.Cl.Cl` [Example 41, N1-(7-Chloro-quinolin-4-yl)-N2-(3,4,5-trimethoxy-benzyl)-2-methyl-propane-1,2-diamine dihydrochloride], the IC50 with Plasmodium falciparum K1 is 0.0187 µg/mL; in assay [1], 0.0135 µg/mL. Also, in the assay on Plasmodium falciparum K1, the Resistance index stood at 1.4.
The corresponding values for `CC(C)(CNc1ccnc2cc(Cl)ccc12)NCc1ccc2c(c1)OCO2.Cl.Cl` [Example 42, N1-(7-Chloro-quinolin-4-yl)-N2-benzo[1,3]dioxol-5-ylmethyl-2-methyl-propane-1,2-diamine dihydrochloride] are 0.0126 µg/mL, 0.0087 µg/mL and 1.4.
With `CC(C)(CNc1ccnc2cc(Cl)ccc12)NCc1cccc2ccccc12.Cl.Cl` [Example 52, N1-(7-Chloro-quinolin-4-yl)-N2-(naphthalen-1-yl-methyl)-2-methyl-propane-1,2-diamine dihydrochloride], in the assay with Plasmodium falciparum K1, the IC50 amounted to 0.0556 µg/mL and the Resistance index came to 1.6. In addition, the IC50 in assay [1] turned out to be 0.0346 µg/mL.
Taken in the same sequence, the figures for `CC(C)(CNc1ccnc2cc(Cl)ccc12)NCc1ccc2ccccc2c1.Cl.Cl` [Example 53, N1-(7-Chloro-quinolin-4-yl)-N2-(naphthalen-2-yl-methyl)-2-methyl-propane-1,2-diamine dihydrochloride] were 0.0149 µg/mL, 0.9 and 0.0159 µg/mL.
Taken in the same sequence, the figures for `CC(C)(CNc1ccnc2cc(Cl)ccc12)NCc1ccco1.Cl.Cl` [Example 54, N1-(7-Chloro-quinolin-4-yl)-N2-(furan-2-yl-methyl)-2-methyl-propane-1,2-diamine dihydrochloride] were 0.029 µg/mL, 1.5 and 0.0193 µg/mL.
The corresponding values for `CC(C)(CNc1ccnc2cc(Cl)ccc12)NCc1ccoc1.Cl.Cl` [Example 55, N1-(7-Chloro-quinolin-4-yl)-N2-(furan-3-yl-methyl)-2-methyl-propane-1,2-diamine dihydrochloride] are 0.0145 µg/mL, 1.9 and 0.0078 µg/mL.
With `CC(C)(CNc1ccnc2cc(Cl)ccc12)NCc1ccc(C(F)(F)F)cc1C(F)(F)F.Cl.Cl` [Example 59, N1-(7-Chloro-quinolin-4-yl)-N2-(2,4-bis-trifluoromethyl-benzyl)-2-methyl-propane-1,2-diamine dihydrochloride], in the assay on Plasmodium falciparum K1, the IC50 amounted to 0.186 µg/mL and the Resistance index was 1.1. For the same molecule, the half-maximal inhibitory concentration (IC50) in assay [1] is 0.166 µg/mL.
As for `Oc1ccccc1CN[C@H]1CC[C@@H](Nc2ccnc3cc(Cl)ccc23)CC1` [Example 78, cis-N1-(7-Chloro-quinolin-4-yl)-N4-(2-hydroxy-benzyl)-cyclohexane-1,4-diamine dihydrochloride], the inhibition in vivo at 10 mg/kg in the assay on Plasmodium berghei (po, single peroral dose of 10 mg/kg, read-out: Growth inhibition in % after po administration (GI%, percentage reduction of the parasitemia)) amounted to 99.9%; in the assay on Plasmodium berghei (sc, single subcutaneous dose of 10 mg/kg, read-out: Growth inhibition in % after sc administration (GI%, percentage reduction of the parasitemia)), 100%.
